The record followed here is US8507448B2, “Human CD154-binding synthetic peptide and uses thereof” (Fresenius Medical Care Deutschland G.m.b.H., priority 2007, dated 2013).

The target of data set [1] is T1, human CD154 expressed on the surface of J558L cells (Homo sapiens, UniProt P29965).
T1 construct: expressed in transfected cells; host or cells: J558L murine myeloma cell line transfected with human CD154
T1 sequence (P29965 1-261): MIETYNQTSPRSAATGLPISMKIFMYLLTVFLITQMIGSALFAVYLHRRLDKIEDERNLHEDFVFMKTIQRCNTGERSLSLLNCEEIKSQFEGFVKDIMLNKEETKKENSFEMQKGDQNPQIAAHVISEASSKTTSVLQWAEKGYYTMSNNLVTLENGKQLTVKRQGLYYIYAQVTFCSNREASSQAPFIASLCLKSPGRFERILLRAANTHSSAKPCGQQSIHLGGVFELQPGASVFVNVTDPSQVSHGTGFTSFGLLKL
Briefly: Binding of -His6-tagged peptides to J558L CD154+ cells by flow cytometry. The following applies: -His6 peptides 60 μM, 30 minutes at room temperature. Here is the method: FIG. 2 represents the binding of the seven peptides obtained from the human CD154-binding clones and tagged with a 6 histidines tail (-His6) to the J558L CD154^+ cells. […] The cells were incubated with each of the -His6-tagged peptides and then with a phycoerythrin-conjugated secondary antibody specific for the -His6 tail. The dotted histogram is the isotopic control, whilst the black line is the binding intensity of the CD154-specific peptides [4.2=4.3=CPSGHTKAC (SEQ ID NO: 1), 4.4=CGTHSSRIC (SEQ ID NO: 2), 4.6=CLGTQNKEC (SEQ ID NO: 3), 4.7=4.12=CTPGKPHSC (SEQ ID NO: 4), 4.8=CKAASANIC (SEQ ID NO: 5), 4.10=CLPTRHMAC (SEQ ID NO: 6) and 4.11=CLSAVHNMC (SEQ ID NO: 7)]. For each experimental condition, 10,000 events were analyzed and the values are the mean and standard deviation of 3 different experiments.
(§1) The peptides were synthesized and conjugated with biotin (-bio) or with a 6-histidine tail (-his6) so as to enable in vitro and in vivo localization. […] Furthermore, a competition assay between the peptides and an anti-human CD154 fluorescein-conjugated antibody (Serotec) specifically recognizing the active site of CD154 was carried out. The J558L cells were incubated with the his6-peptides for 30 minutes at room temperature and then with anti-human CD154 fluorescein-conjugated antibody for another 30 minutes at room temperature. […] In order to identify the amino acid residues of the amino acid sequence of peptide 4.10 which are essential to the binding to CD154, three different peptides were synthesized, each one carrying a point mutation, which amino acid sequences differ from that of peptide 4.10 by replacement of the amino acid residues at positions 4, 5, 6, respectively, with one alanine residue.
The mutated peptides were not capable of recognizing human CD154 expressed at the surface of J558L cells (data not shown).
Similar results were obtained with the four modified peptides 4.101, 4.102, 4.103 e 4.104 having the amino acid sequences illustrated in table II.
For orientation: A flow cytometer gives signals particle by particle.

The target in data set [2] is T2, active site of human CD154 (Homo sapiens, UniProt P29965).
T2 construct: expressed in transfected cells; host or cells: J558L murine myeloma cell line transfected with human CD154
T2 sequence (P29965 1-261): T1 sequence (P29965 1-261)
Briefly: Competition with anti-human CD154 fluorescein-conjugated antibody on J558L cells. Format: binding. Particulars: -His6 peptides 30 minutes at room temperature, then antibody. How it is done:
The murine myeloma cells transfected with human CD154, J558L, were incubated with each of the seven anti-CD154 peptides tagged with a 6 histidines tail (-His6), and then with the anti-CD154 fluorescein-conjugated antibody. The ability of the peptides to compete with the anti-CD154 antibody for the binding to the CD154 molecule expressed on the surface of the J558L cells was evaluated by flow cytometry, as the reduction in the fluorescence intensity compared to the positive control represented by cells incubated with the anti-human CD154 fluorescein-conjugated antibody alone. […] The amino acid sequence of the control peptide differs from that of peptide 4.10 in that an arginine residue is replaced with an alanine residue at amino acid position 5.
as §1

Data set [3] has as its system CD40 stimulation of peripheral B cells by rhsCD154. Description: rhsCD154-induced B cell activation (CD80 and CD86 membrane expression). Format: cell-based, human. How it is done: The histograms of 4A show the effect of the anti-CD154 peptides and the control peptide 4.10-ala, on the activation B cells induced by stimulation with a soluble recombinant human CD154 molecule (rhsCD154). B cells were stimulated for 48 hours with rhsCD154 in the absence and in the presence of a blocking anti-human CD154 antibody or one of the seven selected peptides. Peripheral B cell activation was evaluated by flow cytometry, as the membrane expression of the co-stimulatory molecules CD80 and CD86. […] On the contrary, the activation is prevented when rhsCD154 is used in combination with a blocking anti-human CD154 antibody or with peptide 4.10 (SEQ ID NO: 6).
B cells are known to constitutively express the CD40 molecule on the cells membrane (van Kooten C. et al, J. Leukoc. Biol. 2000). Stimulation of CD40 by CD154-expressing activated T cells, results in B cells activation, proliferation and isotype switching. The inventors employed B cells isolated from whole peripheral blood of healthy donors by gradient-Ficoll centrifugation and immunomagnetical separation (MACS systems—Milteniy). The quiescent B cells thereby obtained, were then stimulated with a soluble form of human recombinant CD154 (rhsCD154) to induce activation and expression of the co-stimulatory molecules CD80 (B7-1) and CD86 (B7-2) on the cell membrane. A drastic increase in membrane expression of CD80 and CD86 on the cell surface of peripheral B cells, after stimulation for 48 hours with rhsCD154 (100 ng/ml) was observed. […] In contrast, pre-incubation for 15 minutes at 37° C. of rhsCD154 (100 ng/ml) with peptide 4.10 (SEQ. ID NO: 6), prior to lymphocyte stimulation, blocked B cells stimulation and the related expression of CD80 and CD86. […] The results are the mean±standard deviation of five different experiments. Similar results were also obtained with B cells isolated from human spleen fragments. […] These experiments were carried out on […] naive B cells, obtained from peripheral blood by negative selection, by depletion of mature lymphocytes from the B cell pool by immunomagnetic separation (MACS Systems Milteniy).

Data set [4] deals with HUVEC. Description: rhsCD154-induced HUVEC motility (time-lapse migration). Format: cell-based, human. Here is the method: Peptide 4.10 (SEQ ID NO: 6), contrary to control peptide 4.10-ala (SEQ ID NO: 8), inhibits the rhsCD154-induced motility of endothelial cells.
It is known that an inflammatory process, once triggered, can be preserved by cells outside the immune system expressing particular receptors or lymphocyte co-stimulatory molecules, such as CD40 and its ligand CD154, such as e.g. endothelial cells from the vascular wall. […] In particular, the cell migration experiments were carried out with HUVEC cells plated on gelatin at a density of 4×10^3 in complete endothelial cell medium in the presence of 20% serum. The following day, the endothelial medium was replaced with low glucose DMEM (Sigma) with a reduced serum concentration (5%), in the presence or absence of rhsCD154 (100 ng/ml).
Furthermore, in order to evaluate the inhibitory effect, rhsCD154 (100 ng/ml) was pre-incubated for 15 minutes at 37° C. with peptide 4.10 (SEQ. ID NO: 6), or with control peptide 4.10-ala (SEQ. ID NO: 8), or with a blocking anti-human CD154 antibody. The flasks were then observed at 10× magnification for a period of 4 hours under a phase contrast inverted microscope equipped with a thermostatic chamber (at about 37° C.). The cells were photographed with a camera connected to the microscope, over the whole length of time of 4 hours at regular intervals of 15 minutes each. The migratory speed of each of the cells was calculated based on the position of the nucleus of each single cell in each single frame, using an image analysis software and, as a result, the average cell migratory speed (1 standard deviation) was calculated for each experimental condition. […] As a further confirmation of the ability of peptide 4.10 to prevent human endothelial CD40 stimulation by rhsCD154 (100 ng/ml), HUVECs (3.5×10^4) were subjected to an in vitro angiogenesis assay. HUVECs were plated on a tumor matrix (Matrigel, BD) capable of promoting the formation of super cellular organization, in a basal RPMI medium supplemented with 5% serum. […]

The test system of data set [5] is HUVEC. Briefly: In vitro angiogenesis: cell cord formation of HUVECs on Matrigel. Particulars: pre-incubated with rhsCD154 100 ng/ml for 15 minutes at 37° C.; 4 hours. The data set is classed as cell-based, human. From the text:
FIGS. 7B-F show representative images of cell cord formation ability on Matrigel under the various experimental conditions mentioned above (B=unstimulated control; C=rhsCD154; D=rhsCD154+ 4.10 peptide; E=rhsCD154+ 4.10-ala peptide; F=rhsCD154+ blocking anti-CD154 antibody). Peptide 4.10 of the invention (SEQ ID NO: 6), contrary to control peptide 4.10-ala (SEQ ID NO: 8), inhibits the rhsCD154-induced ability of the endothelial cells of forming cell cords.
Furthermore, in order to evaluate the inhibitory effect, rhsCD154 (100 ng/ml) was pre-incubated for 15 minutes at 37° C. with peptide 4.10 (SEQ. ID NO: 6), or with control peptide 4.10-ala (SEQ. ID NO: 8), or with a blocking anti-human CD154 antibody. The flasks were then observed at 10× magnification for a period of 4 hours under a phase contrast inverted microscope equipped with a thermostatic chamber (at about 37° C.). The cells were photographed with a camera connected to the microscope, over the whole length of time of 4 hours at regular intervals of 15 minutes each. The migratory speed of each of the cells was calculated based on the position of the nucleus of each single cell in each single frame, using an image analysis software and, as a result, the average cell migratory speed (1 standard deviation) was calculated for each experimental condition. […] As a further confirmation of the ability of peptide 4.10 to prevent human endothelial CD40 stimulation by rhsCD154 (100 ng/ml), HUVECs (3.5×10^4) were subjected to an in vitro angiogenesis assay. HUVECs were plated on a tumor matrix (Matrigel, BD) capable of promoting the formation of super cellular organization, in a basal RPMI medium supplemented with 5% serum. Upon incubation at 37° C. under 5% CO2 for 4 hours, the cells were observed under a contrast phase inverted microscope.

For the next data set, the system named is naive B cells. Description: Isotype switching of naive B cells induced by IL-4 and rhsCD154. The data set is classed as cell-based, human. Particulars: IL-4 0.4 ng/ml and rhsCD154 100 ng/ml, 96 hours, no inhibitor. Here is the method: The graphics of FIG. 5A show the percentage of naive B cells undergoing isotype switching and expressing IgG, under basal condition with no stimulation, after stimulation for 72 hours with IL4 and CD154, […] anti-human CD154 antibody, […] 4.10 (SEQ ID NO: 6), respectively. Peptide 4.10 (SEQ ID NO: 6), just as the anti-CD154 antibody, is capable of strongly inhibiting the isotype switching of immunoglobulins induced by stimulation with rhsCD154 and IL4.
B cells are known to constitutively express the CD40 molecule on the cells membrane (van Kooten C. et al, J. Leukoc. Biol. 2000). Stimulation of CD40 by CD154-expressing activated T cells, results in B cells activation, proliferation and isotype switching. The inventors employed B cells isolated from whole peripheral blood of healthy donors by gradient-Ficoll centrifugation and immunomagnetical separation (MACS systems—Milteniy). The quiescent B cells thereby obtained, were then stimulated with a soluble form of human recombinant CD154 (rhsCD154) to induce activation and expression of the co-stimulatory molecules CD80 (B7-1) and CD86 (B7-2) on the cell membrane. A drastic increase in membrane expression of CD80 and CD86 on the cell surface of peripheral B cells, after stimulation for 48 hours with rhsCD154 (100 ng/ml) was observed. […]

A further data set deals with human platelets. Briefly: Platelet aggregation assay (aggregometer). Format: cell-based. The following applies: priming 10 minutes at 37° C.; peptide 60 μM with CD154. How it is done: Platelet aggregation was measured with an aggregometer, as the increase in light transmission compared to the control. Priming of human platelets with the anti-human CD154 antibody in combination with rhsCD154 increases platelet aggregation upon stimulation with ADP 0.5 μM.
Finally, one of the major advantages of peptide 4.10 is its lack of reactivity towards human platelets. It is know that in the past, a number of clinical trials carried out to test promising anti-CD154 monoclonal antibodies were suddenly discontinued due to dramatic prothrombotic side effects (Kelsoe G. et al, J. Clin. Invest. 2003). The hypothesis is that the anti-CD154 antibodies had triggered a cross-reaction on the surface of human platelets expressing the receptor for the Fc immunoglobulin fraction (FcR) and, after activation, the CD154 molecule. Thus, the inventors tested the effect of peptide 4.10 on platelets, by a platelet aggregation assay. Such experiments were carried out by the use of a thermostatic aggregometer, equipped with a magnetic stirrer and a real time optical density meter. Platelet aggregation was evaluated as the change in optical density versus the reference sample (blank). The experiments were carried out on platelets extracted from peripheral whole blood of healthy donors collected in tubes containing 5 U/ml heparin. In particular, the platelet enriched plasma (PRP), was obtained by whole blood centrifugation at 900 rpm for 20 minutes, while the platelet poor plasma (PPP), used as the reference sample, was obtained collecting the supernatant after another centrifugation at 3000 rpm for 10 minutes. […] Similar results were obtained inducing platelet aggregation with 0.3 U/ml thrombin.

Setting [6] is: rhsCD154 100 ng/ml alone, 48 hours.

As to “CLPTAHMAC (binding protein) [peptide 4.10-ala, control peptide; arginine at position 5 of peptide 4.10 replaced with alanine, reference compound]”, the “binding to J558L CD154+ cells” value in data set [1] is “least reactive”. Besides, the “competition with anti-human CD154 fluorescein-conjugated antibody specific for the active site of CD154” value in data set [2] was “complete inactivation of the peptide's ability to compete”. The “inhibition of rhsCD154-induced B cell activation (CD80 and CD86 expression)” value in data set [3] (250 μM) was “neither affected the expression of CD80 and CD86”. Further, the “effect on rhsCD154-induced motility of HUVEC” value in the data set on HUVEC [4] (pre-incubated with rhsCD154 100 ng/ml for 15 minutes at 37° C.) was “did not affect endothelial CD40 stimulation”. Besides, the “effect on rhsCD154-induced formation of vessel-like cell cords on Matrigel” value in the data set with HUVEC [5] is listed as “did not affect the ability of the cells to form vessel-like cell cords”.
As to “rhsCD154: recombinant soluble form of human CD154, used as the CD40 stimulus [reference compound]”, in data set [3] (setting [6]), the “increase in membrane expression of CD80 compared to basal levels” value was determined as 300% and the “increase in membrane expression of CD86 compared to basal levels” value amounted to 274%. Also, the “increase in the number of B cells expressing membrane IgG” value in the data set with naive B cells amounted to 25%. Moreover, the “increase in the basal motility of cells” value with HUVEC [4] (rhsCD154 100 ng/ml alone) is “about 350%”. In the data set on HUVEC [4] (rhsCD154 100 ng/ml alone, basal lower than 12 μm/h), this substance came in with a cell migratory speed of 42 μm/h. In the data set on human platelets, the “platelet aggregation induced by ADP 0.5 μM after priming” value is listed as “did not enhance platelet aggregation”.
